# Source: ChEMBL document CHEMBL1201862, “PubChem BioAssay data set” (2004)
# Active and inactive are the calls of the source. Rule as the data show it: actives have a measured IC50 and inactives only a lower limit.
# Target: Envelope glycoprotein gp160 (Human immunodeficiency virus 1, UniProt Q6QLK5)
# Assay: inhibitors of HIV fusion peptide binding, primary screen, biochemical, uHTS, fluorescence dequenching (AID 1986)
# Chain of Envelope glycoprotein gp160 (Q6QLK5 whole entry, the tested form may be a part): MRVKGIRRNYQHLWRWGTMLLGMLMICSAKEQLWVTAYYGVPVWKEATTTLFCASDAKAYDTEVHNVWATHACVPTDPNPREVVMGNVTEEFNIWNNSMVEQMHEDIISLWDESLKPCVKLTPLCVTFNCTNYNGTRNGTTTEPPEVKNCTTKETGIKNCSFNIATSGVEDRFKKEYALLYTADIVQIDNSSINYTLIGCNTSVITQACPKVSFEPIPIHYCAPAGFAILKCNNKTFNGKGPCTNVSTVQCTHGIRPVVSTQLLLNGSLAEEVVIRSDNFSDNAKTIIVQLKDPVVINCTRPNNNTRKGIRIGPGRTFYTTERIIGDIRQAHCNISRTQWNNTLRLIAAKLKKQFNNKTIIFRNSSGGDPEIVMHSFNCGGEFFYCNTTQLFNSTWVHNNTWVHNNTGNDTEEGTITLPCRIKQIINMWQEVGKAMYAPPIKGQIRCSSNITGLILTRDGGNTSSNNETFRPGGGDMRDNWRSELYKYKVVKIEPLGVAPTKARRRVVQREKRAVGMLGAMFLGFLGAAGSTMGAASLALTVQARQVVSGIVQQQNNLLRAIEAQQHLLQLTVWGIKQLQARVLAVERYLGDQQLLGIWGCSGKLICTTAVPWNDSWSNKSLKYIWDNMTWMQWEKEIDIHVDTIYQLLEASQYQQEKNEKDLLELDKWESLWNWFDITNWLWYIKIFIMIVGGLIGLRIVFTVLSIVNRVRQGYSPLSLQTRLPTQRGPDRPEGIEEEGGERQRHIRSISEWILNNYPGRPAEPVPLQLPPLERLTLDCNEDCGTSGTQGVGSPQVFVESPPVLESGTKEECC
compound,measurement,value
COc1ccc(C(=O)/C=C/c2cccc(OCc3ccccc3)c2)cc1CSCC(=O)O,IC50,29.2 µM (active)
